Results published in PMC10893631, “Receptor-based pharmacophore modeling, molecular docking, synthesis and biological evaluation of novel VEGFR-2, FGFR-1, and BRAF multi-kinase inhibitors” (BMC Chemistry, 2024).
Where two headings read alike, the source gives them in different places.

Key:
MDA-MB-468 = test: NCI SRB growth inhibition (single dose 10 µM / five-dose); type: cell-based, human; details: Homo sapiens; MDA-MB-468 (Breast cancer), 10 µM; read-out: GI%
Protocol: (§1) Screening of cytotoxic activity against a panel of sixty human tumor cell lines The selected compounds by NCI were evaluated for their anticancer activity in a two- stage process. […] Then, the output from the single dose screen is reported as a mean graph. […] Assay protocol. […] For a typical screening experiment, cells are inoculated into 96 well microtiter plates in 100 µL at plating densities ranging from 5000 to 40,000 cells/well depending on the doubling time of individual cell lines. […] After 24 h, two plates of each cell line are fixed in situ with TCA, to represent a measurement of the cell population for each cell line at the time of drug addition (Tz). The experimental drugs are solubilized in dimethyl sulfoxide at 400-fold the desired final maximum test concentration and stored frozen prior to use. At the time of drug addition, an aliquot of frozen concentrate is thawed and diluted to twice the desired final maximum test concentration with complete medium containing 50 µg/mL gentamicin. Additional four, 10-fold or ½ log serial dilutions are made to provide a total of five drug concentrations plus control. Aliquots of 100 mL of these different drug dilutions are added to the appropriate microtiter wells already containing […] of medium, resulting in the required final drug concentrations. […] For adherent cells, the assay is terminated by the addition of cold TCA. […] The supernatant is discarded, and the plates are washed five times with tap water and air dried. Sulforhodamine B (SRB) solution ([…]) at 0.4% (w/v) in 1% acetic acid is added to each well, and plates are incubated for 10 min at room temperature. After staining, unbound dye is removed by washing five times with 1% acetic acid and the plates are air dried. […] Using the seven absorbance measurements [time zero, (Tz), control growth, (C), and test growth in the presence of drug at the five concentration levels (Ti)], the percentage growth is calculated at each of the drug concentrations levels. Percentage growth inhibition is calculated as: [(Ti Tz)/(C–Tz)] x 100 for concentrations for which Ti>/=Tz and [(Ti-Tz)/Tz] x 100 for concentrations for which Ti < Tz. Three dose response parameters are calculated for each experimental agent. […] The drug concentration resulting in total growth inhibition (TGI) is calculated from Ti = Tz. […] Values are calculated for each of these three parameters if the level of activity is reached; however, if the effect is not reached or is exceeded, the value for that parameter is expressed as greater or less than the maximum or minimum concentration tested.

T-47D = test: as above; type: cell-based, human; details: Homo sapiens, T47D; T-47D (Breast cancer), 10 µM; read-out: GI%
Protocol: as §1

UO-31 = test: as above; type: cell-based, human; details: Homo sapiens; UO-31 (Renal cancer), 10 µM; read-out: GI%
Protocol: as §1

SF-295 = test: as above; type: cell-based, human; details: Homo sapiens; SF-295 (CNS cancer), 10 µM; read-out: GI%
Protocol: as §1

LOX IMVI = test: as above; type: cell-based, human; details: Homo sapiens; LOX IMVI (Melanoma), 10 µM; read-out: GI%
Protocol: as §1

SK-MEL-5 = test: as above; type: cell-based, human; details: Homo sapiens; SK-MEL-5 (Melanoma), 10 µM; read-out: GI%
Protocol: as §1

HL-60(TB) = test: as above; type: cell-based, human; details: Homo sapiens; HL-60(TB) (Leukemia), 10 µM; read-out: GI%
Protocol: as §1

NCI-H460 = test: as above; type: cell-based, human; details: Homo sapiens; NCI-H460 (Non-small cell lung cancer), 10 µM; read-out: GI%
Protocol: as §1

NCI-H322M = test: as above; type: cell-based, human; details: Homo sapiens; NCI-H322M (Non-small cell lung cancer), 10 µM; read-out: GI%
Protocol: as §1

DU-145 = test: as above; type: cell-based, human; details: Homo sapiens; DU-145 (Prostate cancer), 10 µM; read-out: GI%
Protocol: as §1

VEGFR-2 = biological target: T1, VEGFR-2 (Homo sapiens, UniProt P35968); test: VEGFR-2 kinase assay kit (BPS), Kinase-Glo Max luminescence; type: biochemical; details: VEGFR-2, single dose 10 µM, duplicate, mean ± SD
T1 construct: purchased BPS Biosciences 40325
T1 sequence (P35968 20-1356): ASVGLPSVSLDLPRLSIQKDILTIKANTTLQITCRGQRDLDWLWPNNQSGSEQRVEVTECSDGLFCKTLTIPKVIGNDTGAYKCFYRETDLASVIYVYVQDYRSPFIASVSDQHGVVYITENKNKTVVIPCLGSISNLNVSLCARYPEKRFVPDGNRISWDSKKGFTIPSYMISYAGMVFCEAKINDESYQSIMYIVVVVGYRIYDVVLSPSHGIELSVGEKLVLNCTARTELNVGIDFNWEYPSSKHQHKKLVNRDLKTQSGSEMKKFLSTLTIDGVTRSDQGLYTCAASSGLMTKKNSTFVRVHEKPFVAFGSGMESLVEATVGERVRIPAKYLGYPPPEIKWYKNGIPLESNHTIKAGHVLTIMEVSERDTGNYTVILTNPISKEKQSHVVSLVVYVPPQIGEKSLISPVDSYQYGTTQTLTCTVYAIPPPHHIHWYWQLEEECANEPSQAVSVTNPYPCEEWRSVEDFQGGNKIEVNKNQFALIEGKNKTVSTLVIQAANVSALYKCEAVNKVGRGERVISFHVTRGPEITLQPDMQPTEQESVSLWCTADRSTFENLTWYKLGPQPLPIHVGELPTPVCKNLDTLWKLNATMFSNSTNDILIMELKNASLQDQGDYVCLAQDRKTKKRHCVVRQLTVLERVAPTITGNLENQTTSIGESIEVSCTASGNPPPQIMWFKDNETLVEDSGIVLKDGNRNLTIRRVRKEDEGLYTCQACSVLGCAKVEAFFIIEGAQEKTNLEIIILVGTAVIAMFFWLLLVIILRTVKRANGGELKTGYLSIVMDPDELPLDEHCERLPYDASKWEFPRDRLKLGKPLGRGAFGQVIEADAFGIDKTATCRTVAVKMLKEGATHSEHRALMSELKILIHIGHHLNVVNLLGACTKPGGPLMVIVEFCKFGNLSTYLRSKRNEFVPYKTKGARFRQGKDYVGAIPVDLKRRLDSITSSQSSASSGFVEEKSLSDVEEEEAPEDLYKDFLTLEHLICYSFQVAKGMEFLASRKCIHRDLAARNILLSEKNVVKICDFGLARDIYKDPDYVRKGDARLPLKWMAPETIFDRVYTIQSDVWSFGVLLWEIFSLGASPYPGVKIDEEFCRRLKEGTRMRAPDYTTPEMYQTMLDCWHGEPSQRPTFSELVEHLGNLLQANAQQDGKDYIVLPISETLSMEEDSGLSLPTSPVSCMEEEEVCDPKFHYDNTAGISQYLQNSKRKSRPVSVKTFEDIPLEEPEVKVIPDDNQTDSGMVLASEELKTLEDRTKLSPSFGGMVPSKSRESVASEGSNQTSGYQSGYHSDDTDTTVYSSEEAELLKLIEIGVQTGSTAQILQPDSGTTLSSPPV
Protocol: 2. Biochemical kinase assay procedure
The inhibitory activity against different kinases was determined using kinase kits […]
from BPS Biosciences and kinase-Glo Max luminescence kinase assay kit (Promega).
The assay was carried out according to the protocol provided by the manufacturer. A stock solution of the synthesized derivatives in 100% DMSO was prepared. Subsequently, the compounds were diluted to 10% DMSO.
A master mixture was prepared according to the number of wells. For VEGFR-2 and FGFR-1 biochemical assays each well include 6 μl of 5x Kinase Buffer 1 + 1 μl of 500 μM ATP + 1 μl of PTK Substrate (Poly-Glu,Tyr 4:1) (10 mg/ml) + 17 μl of distilled water. For BRAF assay each well include 6 μl of 5x Kinase Buffer 1 + 1 μl of ATP (500 μM) + 10 μl of 5X Raf substrate + 8 μl of distilled water. 1x Kinase buffer 1 was prepared by mixing 600 μl of 5x Kinase Buffer 1 with 2400 μl water to give 3 mL. Kinases were thawed on ice and were diluted with 1x Kinase Buffer 1.
To start the biochemical reaction, 25 µL of the master mixture was added to each well in 96 well plate. 5 µL of 10% DMSO was added to positive control wells and blank wells. 5 µL of diluted inhibitor was added to each well labelled with the test inhibitor so that the final concentration of DMSO is 1% in all reactions. Then 20 µL of (1 ng / μl) in case of VEGFR-2 and FGFR-1 or (2.5 ng/μl) in case of BRAF in 1x kinase buffer was added to positive control wells and wells labelled with the inhibitor, while 20 µL 1x kinase buffer 1 was added to the […]
The plate was incubated at 30 °C for 45 min. Subsequently, 50 μl of Kinase-Glo Max luminescence reagent was added to each well and the plate was covered with aluminum foil and incubated at room temperature 15 min. Finally, the luminescence was recorded using multimode microplate reader. Kinase activity assays were performed in duplicate at each […]
The luminescence data were analyzed as follows. The difference between luminescence intensities in the absence of kinase (Lut) and in the presence of kinase (Luc) was defined as 100 % activity (Lut – Luc). Using luminescence signal (Lu) in the presence of the compound, % activity was calculated as: % activity = {(Lut - Lu)/(Lut - Luc)}×100%. The […]
concentration of the test compounds required to reduce the kinase activity by 50% was determined from dose-response curves and recorded as their IC50. […]

[1] = test system: NCI panel of 60 tumor cell lines; test: NCI SRB growth inhibition, whole panel mean (single dose 10 µM / five-dose); type: cell-based, human; details: Homo sapiens, 10 µM
Protocol: as §1

[2] = mean over NCI 60 cell lines, > 100% = lethal effect, read-out: mean growth inhibition % (GI%)
[3] = mean over NCI panel of 60 tumor cell lines, read-out: Mean growth inhibition %

Structure (SMILES) | inhibition at 10 µM (MDA-MB-468) | inhibition at 10 µM (T-47D) | inhibition at 10 µM (UO-31) | inhibition at 10 µM (SF-295) | inhibition at 10 µM (LOX IMVI) | inhibition at 10 µM (SK-MEL-5) | inhibition at 10 µM (HL-60(TB)) | inhibition at 10 µM (NCI-H460) | inhibition at 10 µM (NCI-H322M) | inhibition at 10 µM (DU-145) | inhibition at 10 µM (VEGFR-2) | inhibition at 10 µM [1, 2] | inhibition at 10 µM [1, 3]
COc1ccc(-c2nc3cc(C(=O)NN=Cc4cc(OC)ccc4OC)ccc3[nH]2)cc1 [8m, N'-(2,5-Dimethoxybenzylidene)-2-(4-methoxyphenyl)-1H-benzo[d]imidazole-5-carbohydrazide] | 16.2% | 40.6% | 9.12% | 19.9% | 18.8% | 22.3% | 18.8% | < 5% | < 5% | < 5% | 6.67 ± 0.08% | 10.9% | 10.9%
COc1ccc(-c2nc3cc(C(=O)NN=Cc4cccc(O)c4)ccc3[nH]2)cc1 [8i, N'-(3-Hydroxybenzylidene)-2-(4-methoxyphenyl)-1H-benzo[d]imidazole-5-carbohydrazide] | 54.6% | 86.8% | 10.5% | 22% | 26.1% | 40.5% | 55.1% | 5.05% | 18.3% | 14% | 45.2 ± 2.22% | 33.1% | 33.1%
O=C(NN=Cc1cccc(O)c1)c1ccc2[nH]c(-c3ccccc3)nc2c1 [8b, N'-(3-Hydroxybenzylidene)-2-phenyl-1H-benzo[d]imidazole-5-carbohydrazide] | 18.9% | 50.9% | 21.6% | < 5% | 7.43% | 10.9% | 14.4% | < 5% | < 5% | < 5% | 23.8 ± 1.47% | 8.49% | 8.49%
